Reference: patent US20260209325A1, “SELECTIVE AND POTENT INHIBITORY ANTIBODIES OF MYOSTATIN ACTIVATION” (SCHOLAR ROCK, INC., priority 2022, published 2026)
Where “and” joins values, the source holds several entries; their conditions need not be identical. Equal values may be shown once.

Tests used:
[1] = type 2 diabetics, meta-analysis; cited from earlier work
[2] = high fat diet mice treated with metformin and antibody (Example 4); type: in vivo, mouse; conditions: monotherapy, 45% high fat diet; FIG. 12A
Protocol: Male C57/BL6 mice were fed a 60% high fat diet beginning at six weeks of age. At nineteen weeks of age (day 0), the mice were switched to a 45% high fat diet for 63 days. […] These mice were further divided into groups that received either 50 mg/kg of metformin or no metformin (Table 22a).
Body weight and food intake were monitored three times per week throughout the study. On days 7, 35, 49, and 63, body composition was determined by qNMR, and glucose, ketones, and insulin were measured. At the end of the study on day 63, body composition was determined by qNMR; glucose, ketones, and insulin were measured, gastrocnemius muscle, whole liver, epididymal, and subcutaneous adipose tissue was collected and weighed.
Male C57/BL6 mice (n=8/group) were fed a 60% HFD until week 18, at which time they are switched to a 45% HFD for 7 days. At day 7, animals in group 3-6 were treated with 50 mg/kg/day metformin, given orally throughout the remainder of the study.
Body weight was measured three times per week; lean mass and fat mass were measured by qNMR on days 7, 35, 49, 63, and 77; serum glucose was also measured on days 7, 35, 49, 63, and 77; serum insulin was measured on days 49, 63, and 77. A glucose tolerance test (GTT) and an insulin tolerance test (ITT) was administered between day 56 and day 63.

latent myostatin = latent myostatin (Homo sapiens, UniProt O14793); conditions: in vivo; cited from earlier work
[3] = patients with SMA, Phase 2 (TOPAZ; NCT03921528); cited from earlier work
[4] = obese patients with type 2 diabetes; cited from earlier work
[5] = test system: follicle stimulating hormone (FSH); conditions: women; cited from earlier work
[6] = Ab109 with 0.01 or 0.04 mg/kg semaglutide in DIO mice (Example 9); type: in vivo, mouse; conditions: for loss in perigonadal fat pad weight: FIG. 22A; for loss in inguinal fat pads: FIG. 22B; for loss in quadriceps weight: FIG. 21A
Protocol: Male C57/BL6 male mice (n=8/group) were placed on a 60% high fat diet at […] of age and maintained on the 60% high fat diet until 21 weeks of age (Groups 1-12), at which time the study began (day −7). On day −7, animals in groups 1-12 were switched to a 45% high fat diet and maintained on the 45% high fat diet until the animals were terminated. […] Body weight was measured three times per week and qNMR measurements of lean mass and fat mass were obtained pre-dose on day 0 and on days 7, 14 and 21. Fasting glucose was measured on day 18 after a 4 hour fast.
Animals in groups 3-12 were dosed with semaglutide daily for 3 weeks, then terminated. Animals in groups 1, 3, and 4 were treated with IgG control antibody, and those in groups 2, 5-12 were treated with myostatin activation inhibiting antibody treatment, for 3 weeks.
At termination, left gastrocnemius and quadriceps muscles were removed and frozen; the liver was weighed, one lobe was frozen; epididymal (perigonadal) adipose tissue was removed and weighed; inguinal (subcutaneous) adipose tissue was removed and weighed; and a terminal serum bleed was obtained.

[7] = semaglutide plus Ab109 in DIO mice incl. semaglutide withdrawal (Example 6); type: in vivo, mouse
Protocol: Male C57/BL6 male mice (n=8/group) were either fed regular mouse chow (Group 1) or placed on a 60% high fat diet at six weeks of age and maintained on the 60% high fat diet until 21 weeks of age (Groups 2-8), at which time the study began (day 0). On day 0, animals in groups 2-8 were switched to a 45% high fat diet and maintained on the 45% high fat diet until the animals were terminated. […] Body weight was measured three times per week and qNMR measurements of lean mass and fat mass were obtained on the days set forth.
Animals in groups 3 and 4 were dosed with semaglutide weekly for 14 days, then terminated. Animals in groups 5 and 6 (weight regain groups), were treated with semaglutide for 35 days, then the semaglutide treatment was ended while the myostatin activation inhibiting antibody treatment continued until the animals were terminated on day 63. The animals in Groups 7 and 8 were treated with semaglutide for 63 days, i.e., they remained on semaglutide until the study terminated on day 63.
At termination, left and right gastrocnemius muscles were removed and frozen; the liver was weighed, one lobe was fixed, and the remainder was frozen; epididymal adipose tissue was removed and weighed; subcutaneous adipose tissue was removed and weighed; and a terminal serum bleed was obtained.

leptin = test: circulating leptin, U-PLEX Metabolic Hormones Combo 1 (Example 6); type: in vivo, mouse; conditions: FIG. 14K
Protocol: Circulating leptin was measured using the U-PLEX Metabolic Hormones Combo 1 (mouse) according to manufacturer's instructions (Meso Scale Diagnostics, #K15306K-2). As expected, circulating leptin was higher in animals fed the high fat diet than animals fed a standard chow.

[8] = Wilding et al. 2022; cited from earlier work

CN(C)C(=N)N=C(N)N [metformin, reference compound]
effect on weight loss [1]: no effect on weight loss
fat mass gain [2]: Neither metformin alone nor Ab109 alone showed this effect

apitegromab: selective myostatin inhibitor antibody that targets pro/latent myostatin and inhibits its activation
circulating latent myostatin in treated subjects (latent myostatin): elevated levels of circulating latent myostatin
efficacy and safety [3]: shown efficacy and safety

bimagrumab: an anti-ActRIIB antibody
total body fat mass and lean mass [4]: reduce total body fat mass and increase lean mass
follicle stimulating hormone (FSH) [5]: significantly reduce follicle stimulating hormone (FSH)

semaglutide [reference compound]
loss in lean mass ([6]; 0.01 mg/kg semaglutide, FIG. 20B): 4.7%
loss of lean mass ([6]; 0.04 mg/kg semaglutide and hIgG, 3 weeks, FIG. 20A): about 9.5%
body weight ([6]; 45% high fat diet, semaglutide 0.01 or 0.04 mg/kg daily, 3 weeks, FIGS. 18A-B): lost weight
loss in perigonadal fat pad weight ([6]; semaglutide 0.01 mg/kg): −19.1%
loss in inguinal fat pads ([6]; semaglutide 0.01 mg/kg): −21.4%
fat mass loss ([6]; semaglutide 0.04 mg/kg alone or with Ab109, FIG. 19A, 19C): induced fat mass loss
loss in perigonadal fat pad weight ([6]; semaglutide 0.04 mg/kg): −45.5%
loss in inguinal fat pads ([6]; semaglutide 0.04 mg/kg): −47.4%
loss in gastrocnemius muscle weight ([6]; semaglutide 0.01 and 0.04 mg/kg, dose of each value not stated, FIG. 21B): −16.9% and −20.3%
loss in quadriceps weight ([6]; semaglutide high dose (0.04 mg/kg)): −7.6%
loss in quadriceps weight ([6]; semaglutide low dose (0.01 mg/kg)): −4.8%
body weight ([7]; 45% high fat diet, semaglutide 0.04 mg/kg with hIgG or Ab109, incl. regain after withdrawal, FIG. 14A): lost weight
loss of lean mass while on semaglutide ([7]; semaglutide and hIgG): about 4%
net loss of lean mass at the end of the study ([7]; semaglutide and hIgG, after semaglutide was stopped): 2.5%
fat mass ([7]; semaglutide, and regain after withdrawal with Ab109 or control IgG, FIG. 14D): induced fat mass loss
circulating leptin (leptin): lowered circulating leptin
regain of prior weight loss one year after discontinuing treatment [8]: regained two-thirds of their prior weight loss
